Columns and labels:
[1] = test system: p53 target genes; experiment: GEP analysis of patient MM cells before and after lenalidomide treatment; assay type: in vivo, human; conditions: patient MM cells treated with Len; *p < 0.05
Text: Expression data for plasma cells from healthy donors, monoclonal gammopathy of undetermined significance (MGUS), and smoldering myeloma (SMM) were derived from GSE5900 dataset, while expression data from normal plasma cells and 65 MM patients were obtained from GSE4452 dataset, using expression profiling on Affymetrix GeneChip (t test, unpaired, equal variance). […] Data were then normalized and analyzed using D-chip software, seeking statistically significant differences among groups or in p53-target gene expression. Statistical significance was determined by Student t test. The minimal level of significance was P<0.05. […] Gene set enrichment analysis (GSEA) was performed as previously described (2) (GSEA v2.0 at http://www.broad.mit.edu/gsea) using gene set as permutation type, as well as 1,000 permutations and signal to noise as metrics for ranking genes.

[2] = test system: p53; experiment: p53 DNA binding activity assay; assay type: cell-based; conditions: MM.1S and H929 cells, 48 h
Procedure: E2F1 DNA binding activity was assessed by electrophoretic mobility shift assay (EMSA) using “EMSA Gel Shift Kit®” from Affimetrix (Santa Clara, Calif.), and p53 DNA binding activity was performed using “p53 Transcription Factor Assay Kit®” from Cayman Chemical (Ann Arbor, Mich.). Experiments were carried out according to manufacturer's protocols.

[3] = test system: p53; experiment: Immunoblotting of p53 and phosphorylated p53 in MM cells; assay type: cell-based
Procedure: (§1) MM cells were harvested and lysed using RIPA-lysis buffer (Boston Bioproducts, Ashland, Mass.) containing 5 mM EDTA, 5 mM NaF, 2 mM Na3VO4, 1 mM PMSF, 5 μg/ml leupeptin, and 5 μg/ml aprotinin. Nuclear proteins were extracted using “Nuclear Extraction Kit” (Affimetrix). After the determination of protein concentration using DC protein assay (Bio-Rad, Hercules, Calif.), β-mercaptoethanol (-ME) was added to the whole-cell lysates to a 2% final concentration. The whole cell lysates or nuclear extracts were subjected to SDS-PAGE, transferred to nitrocellulose membranes (Bio-Rad, Hercules, Calif.) or polyvinylidene fluoride membranes (Millipore, Billerica, Mass.), and immunoblotted with indicated Abs. Silver staining was carried out using “SilverQuest Staining Kit®” (Invitrogen), according to manufacturer's protocol.

[4] = test system: LC3-II, Bim, PARP, MDM2, XIAP, cIAP, p-p70S6K; experiment: Immunoblotting/qPCR of autophagy and apoptosis proteins in MM cells; assay type: cell-based; conditions: MM.1S cells, 2.5 μM, 48 h
Procedure: as §1
(§2) RNA was extracted using Trizol (Invitrogen) and quantified by a Nanodrop spectrophotometer (Labtech). Specifically, 5×10^6 cells were pelleted, washed with cold PBS, and resuspended in 1 mL Trizol. They were then incubated with 1-Bromo-3-chloropropane (Sigma), washed first with Isopropyl alcohol and then with 75% Ethanol, and resuspended in Nuclease Free-water (Invitrogen). After quantification, 2000 ng of RNA was used to synthesize cDNA via the Superscript II First strand synthesis Kit (Invitrogen), according to the manufacturer's instructions. To evaluate the expression levels of TP53RK, BCL2L11, MYC, Bim, E2F1, TP53, IKZF1, IKZF3, RRM1, p18CDKN2C, PSMB5, PSMB7, PSMA3 and GAPDH, quantitative real time PCR (QRT-PCR) was performed using SYBR GREEN PCR Master Mix (Applied Biosystem), after optimization of the primer conditions. cDNAs were diluted 1:100 or 1:1000 and amplified in a 20 μL reaction. Primers were used at 200 nM or 400 nM concentration. Thermal cycling conditions were: 10 minutes at 95° C., 40 cycles at 95° C. for 15 seconds, followed by 1 minute at 60° C. Real-time quantitative PCR was performed on ABI Prism 7300 Sequence Detection System (Applied Biosystems). Data were analyzed using the delta delta Ct method. GAPDH was used as an invariant control.

[5] = test system: RRM1, p18CDKN2C; experiment: RRM1 and p18CDKN2C expression (RT-qPCR, Western blot); assay type: cell-based; conditions: H929 cells
Procedure: as §1, §2

[6] = test system: hTERT; experiment: hTERT expression and telomerase activity (TeloTAGGG Telomerase PCR ELISA); assay type: cell-based; conditions: MM.1S cells and H929 cells
Procedure: as §1
Telomerase activity in MM.1S and H929 cells was assessed by “TeloTAGGG Telomerase PCR ELISA®” from Roche Applied Science (Mannheim, Germany).

[7] = test system: E2F1; experiment: E2F1 DNA binding activity (EMSA), protein and mRNA; assay type: cell-based; conditions: MM cells
Procedure: MM cells were harvested and lysed using RIPA-lysis buffer (Boston Bioproducts, Ashland, Mass.) containing 5 mM EDTA, 5 mM NaF, 2 mM Na3VO4, 1 mM PMSF, 5 μg/ml leupeptin, and 5 μg/ml aprotinin. Nuclear proteins were extracted using “Nuclear Extraction Kit” (Affimetrix). After the determination of protein concentration using DC protein assay (Bio-Rad, Hercules, Calif.), β-mercaptoethanol (-ME) was added to the whole-cell lysates to a 2% final concentration. […]
RNA was extracted using Trizol (Invitrogen) and quantified by a Nanodrop spectrophotometer (Labtech). […] After quantification, 2000 ng of RNA was used to synthesize cDNA via the Superscript II First strand synthesis Kit (Invitrogen), according to the manufacturer's instructions. To evaluate the expression levels of TP53RK, BCL2L11, MYC, Bim, E2F1, TP53, IKZF1, IKZF3, RRM1, p18CDKN2C, PSMB5, PSMB7, PSMA3 and GAPDH, quantitative real time PCR (QRT-PCR) was performed using SYBR GREEN PCR Master Mix (Applied Biosystem), after optimization of the primer conditions. cDNAs were diluted 1:100 or 1:1000 and amplified in a 20 μL reaction. […] Real-time quantitative PCR was performed on ABI Prism 7300 Sequence Detection System (Applied Biosystems). Data were analyzed using the delta delta Ct method. […]

[8] = test system: hTERT; experiment: Comparative hTERT expression analysis in matched MM patient samples (GSE8546); assay type: in vivo, human; conditions: matched samples before and after Len, GSE8546 dataset
[9] = test system: Chk1, ATM, ATR, Chk2; experiment: Immunoblotting of DNA damage kinase phosphorylation; assay type: cell-based; conditions: MM.1S cells, 48 h
Procedure: as §1

[10] = test system: MM cells; experiment: Growth inhibition assay (MTT) / viable cell count (Trypan-blue); assay type: cell-based
Procedure: Cell growth was assessed by measuring 3-(4,5-dimethylthiazol-2-yl)-2,5-diphenyl […] bromide (MTT, Chemicon International, Temecula, Calif.) dye absorbance. Cells were pulsed with 10 μl of 5 mg/ml MTT to each well for the last 4 h of 48 h and/or 72 h cultures, followed by 100 μl isopropanol containing 0.04N HCl. Absorbance was measured at 570/630 nm using a spectrophotometer (Molecular Devices Corp., Sunnyvale Calif.).

Nc1cccc2c1CN(C1CCC(=O)NC1=O)C2=O (stereo not drawn) [Len, lenalidomide]
BID expression change [1]: ↓ | CCNA1 expression change [1]: ↓ | CCNA2 expression change [1]: ↓ | CCNE2 expression change [1]: ↓ | CCNG1 expression change [1]: ↓ | CCR5 expression change [1]: ↓ | CDC25B expression change [1]: ↑ | CDKN3 expression change [1]: ↓ | CTSL2 expression change [1]: ↑ | CUL1 expression change [1]: ↓ | DDX3X expression change [1]: ↑* | DDX11 expression change [1]: ↓ | DLEC1 expression change [1]: ↓ | FGFR3 expression change [1]: ↓ | HLA-C expression change [1]: ↑ | ILR6 expression change [1]: ↓ | ITM2B expression change [1]: ↑* | JUND expression change [1]: ↓ | KRAS expression change [1]: ↑* | LAPTM5 expression change [1]: ↑ | MAP2K6 expression change [1]: ↓* | MKI67 expression change [1]: ↓ | MSX1 expression change [1]: ↓ | MYBL2 expression change [1]: ↓* | MYC expression change [1]: ↓ | RAD21 expression change [1]: ↑ | RAD51C expression change [1]: ↓ | RHOH expression change [1]: ↑* | RRM1 expression change [1]: ↓* | RRM2 expression change [1]: ↓* | SEC61A1 expression change [1]: ↑* | SMC4 expression change [1]: ↑ | STAT3 expression change [1]: ↑ | TEAD3 expression change [1]: ↓ | UBC expression change [1]: ↑* | XPC expression change [1]: ↑ | ZNF330 expression change [1]: ↓ | p53 activity (p53 DNA binding) [2]: block | p53 phosphorylation at Ser20 and Ser37 ([3]; MM.1S cells, 2.5 μM, 48 h): no change | phosphorylated (p-Ser15)-p53 and p53 levels ([3]; MM.1S cells, 2.5 μM, 48 h): downregulated | Nut3-induced upregulation of p-p53 and p53 ([3]; MM.1S cells, Len or Pom 2.5 μM with Nutlin-3a 0.5 μM, 48 h): inhibited | p-p53/p53 downregulation ([3]; nuclear extracts from MM.1S and H929 cell lines, patient MM cells): further confirmed | LC3-II level [4]: upregulation | RRM1 expression [5]: downregulate | p18CDKN2C expression [5]: upregulate | hTERT expression [6]: significantly inhibited | telomerase (hTERT) activity [6]: significantly inhibited | E2F1 [7]: increases | hTERT levels in MM patient samples after treatment [8]: lower | phosphorylation of ATM, ATR or Chk2 [9]: not | phosphorylation of Chk1 [9]: inhibited | drug-triggered growth inhibition in kinase-dead D163A TP53RK transfectants ([10]; H929 cells, 48 h): abrogated | sensitivity of MM cell lines to drug ([10]; MM.1S and H929 cells with wt-p53 versus cell lines with mutant p53): more sensitive | drug-triggered cell death after CRBN knock-down ([10]; OPM2 cells (mutant p53) and H929 cells (wt-p53)): only partially abrogates

From patent US10302644B2, “Compositions and methods for treating multiple myeloma” (Dana-Farber Cancer Institute, Inc., priority 2014, dated 2019)
